{"source": "paper PMC5218480", "about": "(PLoS ONE, 2017)", "tested_on": "MV-4-11 cells", "assay": "Gene expression microarray analysis (Affymetrix PrimeView) and GSEA", "assay_type": "cell-based, human", "parameters": "RFU PODN (11730768_x_at) / Fold change /veh PODN (11730768_x_at) / RFU LINC00158 (11744669_a_at) / Fold change /veh LINC00158 (11744669_a_at) / RFU DUSP10 (11751237_a_at) / Fold change /veh DUSP10 (11751237_a_at) / RFU ID3 (11757404_x_at) / Fold change /veh ID3 (11757404_x_at) / RFU PLEKHG5 (11737974_s_at) / Fold change /veh PLEKHG5 (11737974_s_at) / RFU LRRC4B (11730491_at) / Fold change /veh LRRC4B (11730491_at) / RFU GIMAP4 (11747438_a_at) / Fold change /veh GIMAP4 (11747438_a_at) / RFU KRT8 (11758183_x_at) / Fold change /veh KRT8 (11758183_x_at) / RFU CNN1 (11734310_a_at) / Fold change /veh CNN1 (11734310_a_at) / RFU VPS37D (11726825_at) / Fold change /veh VPS37D (11726825_at) / RFU C10orf10 (11716522_x_at) / Fold change /veh C10orf10 (11716522_x_at) / RFU KIR2DL2 /// KIR2DL4 /// KIR2DL5A /// KIR2DL5B /// KIR2DS1 /// KIR2DS2 /// KIR2DS3 /// KIR2DS4 /// KIR3DL3 /// KIR3DL3 /// KIR3DS1 (11738374_at) / Fold change /veh KIR2DL2 /// KIR2DL4 /// KIR2DL5A /// KIR2DL5B /// KIR2DS1 /// KIR2DS2 /// KIR2DS3 /// KIR2DS4 /// KIR3DL3 /// KIR3DL3 /// KIR3DS1 (11738374_at) / RFU C1QL1 (11718748_at) / Fold change /veh C1QL1 (11718748_at) / RFU TMPRSS4 (11747572_a_at) / Fold change /veh TMPRSS4 (11747572_a_at) / RFU HAMP (11756126_x_at) / Fold change /veh HAMP (11756126_x_at) / RFU RNFT2 (11725882_a_at) / Fold change /veh RNFT2 (11725882_a_at) / RFU NR4A2 (11747474_a_at) / Fold change /veh NR4A2 (11747474_a_at) / RFU ABCC12 (11746883_a_at) / Fold change /veh ABCC12 (11746883_a_at) / RFU TMEM136 (11760407_x_at) / Fold change /veh TMEM136 (11760407_x_at) / RFU CLDN22 /// WWC2 (11732394_at) / Fold change /veh CLDN22 /// WWC2 (11732394_at) / RFU HLA-DPB1 (11760878_x_at) / Fold change /veh HLA-DPB1 (11760878_x_at) / RFU SPINT1 (11716480_a_at) / Fold change /veh SPINT1 (11716480_a_at) / RFU GAP43 (11754022_s_at) / Fold change /veh GAP43 (11754022_s_at) / RFU A4GNT (11735810_at) / Fold change /veh A4GNT (11735810_at) / RFU PRB3 (11715151_x_at) / Fold change /veh PRB3 (11715151_x_at) / RFU TUBB4B (11761932_at) / Fold change /veh TUBB4B (11761932_at) / RFU CAPN14 (11732068_a_at) / Fold change /veh CAPN14 (11732068_a_at) / RFU TMCC2 (11721928_a_at) / Fold change /veh TMCC2 (11721928_a_at) / RFU IRGQ (11745062_a_at) / Fold change /veh IRGQ (11745062_a_at) / RFU FAM174B (11720279_a_at) / Fold change /veh FAM174B (11720279_a_at) / RFU TMPRSS4 (11748680_a_at) / Fold change /veh TMPRSS4 (11748680_a_at) / RFU FAM212B (11763350_a_at) / Fold change /veh FAM212B (11763350_a_at) / RFU PLEKHG5 (11743358_a_at) / Fold change /veh PLEKHG5 (11743358_a_at) / RFU ZSCAN30 (11745921_a_at) / Fold change /veh ZSCAN30 (11745921_a_at) / RFU CMKLR1 (11741424_a_at) / Fold change /veh CMKLR1 (11741424_a_at) / RFU LOC101060620 /// MAPK8IP1 (11723275_at) / Fold change /veh LOC101060620 /// MAPK8IP1 (11723275_at) / RFU SPTSSB (11747773_x_at) / Fold change /veh SPTSSB (11747773_x_at) / RFU PRSS12 (11739890_at) / Fold change /veh PRSS12 (11739890_at) / RFU BIN1 (11741810_x_at) / Fold change /veh BIN1 (11741810_x_at) / RFU WNT11 (11732464_a_at) / Fold change /veh WNT11 (11732464_a_at) / RFU C10orf10 (11716521_a_at) / Fold change /veh C10orf10 (11716521_a_at) / RFU C5orf56 (11738089_at) / Fold change /veh C5orf56 (11738089_at) / RFU CYB561 (11721691_x_at) / Fold change /veh CYB561 (11721691_x_at) / RFU ANKRD19P (11752326_a_at) / Fold change /veh ANKRD19P (11752326_a_at) / RFU OR2T12 /// OR2T33 /// OR2T8 (11738714_s_at) / Fold change /veh OR2T12 /// OR2T33 /// OR2T8 (11738714_s_at) / RFU VCAN (11748164_a_at) / Fold change /veh VCAN (11748164_a_at) / RFU JSRP1 (11732532_at) / Fold change /veh JSRP1 (11732532_at) / RFU KRTAP10-11 (11738290_x_at) / Fold change /veh KRTAP10-11 (11738290_x_at) / RFU MYO3A (11730013_a_at) / Fold change /veh MYO3A (11730013_a_at) / RFU EBF3 (11725865_a_at) / Fold change /veh EBF3 (11725865_a_at) / RFU CAMK2N1 (11719241_x_at) / Fold change /veh CAMK2N1 (11719241_x_at) / RFU C5orf56 (11738088_a_at) / Fold change /veh C5orf56 (11738088_a_at) / RFU OLFML3 (11715873_a_at) / Fold change /veh OLFML3 (11715873_a_at) / RFU LOC100653217 /// NTM (11731650_a_at) / Fold change /veh LOC100653217 /// NTM (11731650_a_at) / RFU MAPK11 (11762145_a_at) / Fold change /veh MAPK11 (11762145_a_at) / RFU FIZ1 (11724087_x_at) / Fold change /veh FIZ1 (11724087_x_at) / RFU OASL (11726364_x_at) / Fold change /veh OASL (11726364_x_at) / RFU SOX15 (11748057_x_at) / Fold change /veh SOX15 (11748057_x_at) / RFU CD79A (11719716_a_at) / Fold change /veh CD79A (11719716_a_at) / RFU HIST1H1D (11736915_at) / Fold change /veh HIST1H1D (11736915_at) / RFU CASKIN2 (11723855_a_at) / Fold change /veh CASKIN2 (11723855_a_at) / RFU LOC730098 (11760151_x_at) / Fold change /veh LOC730098 (11760151_x_at) / RFU OR4N2 (11742367_at) / Fold change /veh OR4N2 (11742367_at) / RFU PRRT2 (11749266_a_at) / Fold change /veh PRRT2 (11749266_a_at) / RFU SNX32 (11753110_a_at) / Fold change /veh SNX32 (11753110_a_at) / RFU CDHR5 (11726645_a_at) / Fold change /veh CDHR5 (11726645_a_at) / RFU RCAN1 (11760418_a_at) / Fold change /veh RCAN1 (11760418_a_at) / RFU FAM167A (11723789_a_at) / Fold change /veh FAM167A (11723789_a_at) / RFU FAM26E (11764081_at) / Fold change /veh FAM26E (11764081_at) / RFU ISYNA1 (11749810_s_at) / Fold change /veh ISYNA1 (11749810_s_at) / RFU ACY1 (11761880_at) / Fold change /veh ACY1 (11761880_at) / RFU 11764098_at / Fold change /veh 11764098_at / RFU SAMD14 (11745864_x_at) / Fold change /veh SAMD14 (11745864_x_at) / RFU NPB (11741838_a_at) / Fold change /veh NPB (11741838_a_at) / RFU TMPRSS6 (11731388_a_at) / Fold change /veh TMPRSS6 (11731388_a_at) / RFU KRTAP10-2 (11738614_at) / Fold change /veh KRTAP10-2 (11738614_at) / RFU ARHGAP8 /// PRR5-ARHGAP8 (11727945_x_at) / Fold change /veh ARHGAP8 /// PRR5-ARHGAP8 (11727945_x_at) / RFU KRTAP5-7 /// NADSYN1 (11734609_at) / Fold change /veh KRTAP5-7 /// NADSYN1 (11734609_at) / RFU RASL12 (11751679_a_at) / Fold change /veh RASL12 (11751679_a_at) / RFU CDKN2B (11736163_a_at) / Fold change /veh CDKN2B (11736163_a_at) / RFU PRF1 (11729649_at) / Fold change /veh PRF1 (11729649_at) / RFU, ZNF638 /// ZNF638-IT1 / Fold change vs veh, ZNF638 /// ZNF638-IT1 / RFU, PANK3 / Fold change vs veh, PANK3 / RFU, SH3YL1 / Fold change vs veh, SH3YL1 / RFU, ZEB2 / Fold change vs veh, ZEB2 / RFU, NRIP1 / Fold change vs veh, NRIP1 / RFU, PTTG1IP / Fold change vs veh, PTTG1IP / RFU, CAPN2 / Fold change vs veh, CAPN2 / RFU, MED14 / Fold change vs veh, MED14 / RFU, SNORA58 / Fold change vs veh, SNORA58 / RFU, C1orf63 / Fold change vs veh, C1orf63 / RFU, LRRFIP1 / Fold change vs veh, LRRFIP1 / RFU, NDUFAF7 / Fold change vs veh, NDUFAF7 / RFU, SLC12A2 / Fold change vs veh, SLC12A2 / RFU, IBTK / Fold change vs veh, IBTK / RFU, ESF1 / Fold change vs veh, ESF1 / Fold change vs veh, TMEM50B / RFU, TAOK1 / Fold change vs veh, TAOK1 / RFU, ACBD3 / Fold change vs veh, ACBD3 / RFU, TMA16 / Fold change vs veh, TMA16 / RFU, RWDD3 / Fold change vs veh, RWDD3 / RFU, BCAT1 / Fold change vs veh, BCAT1 / RFU, EDEM3 / Fold change vs veh, EDEM3 / RFU, TMEM33 / Fold change vs veh, TMEM33 / RFU, WDR75 / Fold change vs veh, WDR75 / RFU, AHCTF1 / Fold change vs veh, AHCTF1 / RFU, TFRC / Fold change vs veh, TFRC / RFU, ZDHHC17 / Fold change vs veh, ZDHHC17 / RFU, NOM1 / Fold change vs veh, NOM1 / RFU, ARL8B / Fold change vs veh, ARL8B / RFU, ZBTB11 / Fold change vs veh, ZBTB11 / RFU, TAMM41 / Fold change vs veh, TAMM41 / RFU, KIAA1704 /// LOC100996395 / Fold change vs veh, KIAA1704 /// LOC100996395 / RFU, ING1 / Fold change vs veh, ING1 / RFU, TRMT61B / Fold change vs veh, TRMT61B / RFU, FUBP3 / Fold change vs veh, FUBP3 / RFU, TP53 / Fold change vs veh, TP53 / RFU, TNKS2 / Fold change vs veh, TNKS2 / RFU, ZFP14 / Fold change vs veh, ZFP14 / RFU, ACTR2 / Fold change vs veh, ACTR2 / RFU, PPP3R1 / Fold change vs veh, PPP3R1 / RFU, PIK3R1 / Fold change vs veh, PIK3R1 / RFU, HNRNPA1 / Fold change vs veh, HNRNPA1 / RFU, RNF170 / Fold change vs veh, RNF170 / RFU, ZNF28 / Fold change vs veh, ZNF28 / RFU, RNGTT / Fold change vs veh, RNGTT / RFU, OGT / Fold change vs veh, OGT / RFU, BRD1 / Fold change vs veh, BRD1 / RFU, MARS / Fold change vs veh, MARS / RFU, ZNF655 / Fold change vs veh, ZNF655 / RFU, FAHD1 / Fold change vs veh, FAHD1 / RFU, BDP1 / Fold change vs veh, BDP1 / RFU, LRRCC1 / Fold change vs veh, LRRCC1 / RFU, ARID1A / Fold change vs veh, ARID1A / RFU, ZNF146 / Fold change vs veh, ZNF146 / RFU, ZNF330 / Fold change vs veh, ZNF330 / RFU, GPN3 / Fold change vs veh, GPN3 / RFU, C9orf123 / Fold change vs veh, C9orf123 / RFU, N4BP2L2 / Fold change vs veh, N4BP2L2 / RFU, ARFIP1 / Fold change vs veh, ARFIP1 / RFU, FAM179B / Fold change vs veh, FAM179B / RFU, BCL10 / Fold change vs veh, BCL10 / RFU, UHRF1BP1L / Fold change vs veh, UHRF1BP1L / RFU, BET1 / Fold change vs veh, BET1 / RFU, CNOT2 / Fold change vs veh, CNOT2 / RFU, ZNF268 / Fold change vs veh, ZNF268 / Fold change vs veh, ZNF507 / RFU, DGCR2 / Fold change vs veh, DGCR2 / RFU, WDSUB1 / Fold change vs veh, WDSUB1 / Fold change vs veh, HSP90B1 /// MIR3652 / RFU, ADSS / Fold change vs veh, ADSS / RFU, GK / Fold change vs veh, GK / RFU, ZNF148 / Fold change vs veh, ZNF148 / RFU, TAF9 / Fold change vs veh, TAF9 / RFU, SLC1A5 / Fold change vs veh, SLC1A5 / RFU, SLMO2 / Fold change vs veh, SLMO2 / RFU, ABCC4 / Fold change vs veh, ABCC4 / RFU, LOC101060439 /// RAP1B / Fold change vs veh, LOC101060439 /// RAP1B / RFU, RFX7 / Fold change vs veh, RFX7 / RFU, GTPBP10 / Fold change vs veh, GTPBP10 / RFU, CNEP1R1 / Fold change vs veh, CNEP1R1 / RFU, BIVM-ERCC5 /// ERCC5 / Fold change vs veh, BIVM-ERCC5 /// ERCC5 / RFU, ILF3 / Fold change vs veh, ILF3 / RFU 11762660_at / Fold change /veh 11762660_at / RFU VCAN (11757783_s_at) / Fold change /veh VCAN (11757783_s_at) / RFU DDX43 (11728927_at) / Fold change /veh DDX43 (11728927_at) / RFU KRT8 (11758188_x_at) / Fold change /veh KRT8 (11758188_x_at) / RFU NKD1 (11759106_at) / Fold change /veh NKD1 (11759106_at) / RFU SRD5A1 (11742802_a_at) / Fold change /veh SRD5A1 (11742802_a_at) / RFU TPSAB1 /// TPSB2 (11721975_s_at) / Fold change /veh TPSAB1 /// TPSB2 (11721975_s_at) / RFU GSTM3 (11746129_a_at) / Fold change /veh GSTM3 (11746129_a_at) / RFU IL23R (11737362_x_at) / Fold change /veh IL23R (11737362_x_at) / RFU TMEM51 (11727254_a_at) / Fold change /veh TMEM51 (11727254_a_at) / RFU PIWIL2 (11732686_x_at) / Fold change /veh PIWIL2 (11732686_x_at) / RFU ORM1 (11744905_x_at) / Fold change /veh ORM1 (11744905_x_at) / RFU CCDC152 (11743942_at) / Fold change /veh CCDC152 (11743942_at) / RFU ECM1 (11717891_a_at) / Fold change /veh ECM1 (11717891_a_at) / RFU IL23R (11748794_a_at) / Fold change /veh IL23R (11748794_a_at) / RFU TNFAIP8L3 (11732012_x_at) / Fold change /veh TNFAIP8L3 (11732012_x_at) / RFU MBOAT4 (11741988_at) / Fold change /veh MBOAT4 (11741988_at) / RFU 11764193_at / Fold change /veh 11764193_at / RFU TMEM53 (11763286_at) / Fold change /veh TMEM53 (11763286_at) / RFU MAGEB2 (11727129_at) / Fold change /veh MAGEB2 (11727129_at) / RFU TMEM200A (11744735_a_at) / Fold change /veh TMEM200A (11744735_a_at) / RFU CCDC152 (11751479_a_at) / Fold change /veh CCDC152 (11751479_a_at) / RFU FAM211A (11726209_a_at) / Fold change /veh FAM211A (11726209_a_at) / RFU RGS16 (11746705_a_at) / Fold change /veh RGS16 (11746705_a_at) / RFU VCAN (11755009_s_at) / Fold change /veh VCAN (11755009_s_at) / RFU RHOB (11743442_s_at) / Fold change /veh RHOB (11743442_s_at) / RFU RGS16 (11720943_a_at) / Fold change /veh RGS16 (11720943_a_at) / RFU RGS16 (11720944_at) / Fold change /veh RGS16 (11720944_at) / RFU, VPS4B / Fold change vs veh, VPS4B / RFU, CREB1 / Fold change vs veh, CREB1 / RFU, DNAJC13 / Fold change vs veh, DNAJC13 / RFU, GNAQ / Fold change vs veh, GNAQ / RFU, CDK5R1 / Fold change vs veh, CDK5R1 / RFU, ZRANB3 / Fold change vs veh, ZRANB3 / RFU, CUL4A / Fold change vs veh, CUL4A / RFU, CCNY / Fold change vs veh, CCNY / RFU, UFL1 / Fold change vs veh, UFL1 / RFU, COG3 / Fold change vs veh, COG3 / RFU, DIAPH2 / Fold change vs veh, DIAPH2 / RFU, SKA2 / Fold change vs veh, SKA2 / RFU, AFF3 / Fold change vs veh, AFF3 / RFU, LMF1 / Fold change vs veh, LMF1 / RFU, IPO11 / Fold change vs veh, IPO11 / RFU, DFFB / Fold change vs veh, DFFB / RFU, FOXP1 / Fold change vs veh, FOXP1 / RFU, CARD8 / Fold change vs veh, CARD8 / RFU, STRN3 / Fold change vs veh, STRN3 / RFU, ADK / Fold change vs veh, ADK / RFU, RASSF2 / Fold change vs veh, RASSF2 / RFU, WIPF1 / Fold change vs veh, WIPF1 / RFU, LARP1B / Fold change vs veh, LARP1B / RFU, RASA1 / Fold change vs veh, RASA1 / RFU, RB1 / Fold change vs veh, RB1 / RFU, PPFIA1 / Fold change vs veh, PPFIA1 / RFU, MAT2A / Fold change vs veh, MAT2A / RFU, CCT5 / Fold change vs veh, CCT5 / RFU, WDR92 / Fold change vs veh, WDR92 / RFU, CUX1 / Fold change vs veh, CUX1 / RFU, TTC7A / Fold change vs veh, TTC7A / RFU, TMEM135 / Fold change vs veh, TMEM135 / RFU, DEPTOR / Fold change vs veh, DEPTOR / RFU, CPM / Fold change vs veh, CPM / RFU, DNAJB6 / Fold change vs veh, DNAJB6 / RFU, CACNA2D3 / Fold change vs veh, CACNA2D3 / RFU, DTX4 / Fold change vs veh, DTX4 / RFU, TFCP2 / Fold change vs veh, TFCP2 / RFU, GMCL1 /// GMCL1P1 / Fold change vs veh, GMCL1 /// GMCL1P1 / RFU, AEBP2 / Fold change vs veh, AEBP2 / RFU, SNHG1 /// SNORD22 /// SNORD25 /// SNORD26 /// SNORD27 /// SNORD28 /// SNORD29 /// SNORD31 / Fold change vs veh, SNHG1 /// SNORD22 /// SNORD25 /// SNORD26 /// SNORD27 /// SNORD28 /// SNORD29 /// SNORD31 / Fold change (Aza/veh), C12orf56 (ProbeSet 11735607_a_at) / Fold change (ACY-1035/veh), C12orf56 (ProbeSet 11735607_a_at) / Fold change (Aza/veh), FGFR1OP (ProbeSet 11751329_s_at) / Fold change (ACY-1035/veh), FGFR1OP (ProbeSet 11751329_s_at) / Fold change (Aza/veh), VPS36 (ProbeSet 11739960_a_at) / Fold change (ACY-1035/veh), VPS36 (ProbeSet 11739960_a_at) / RFU SYPL1 (11715823_x_at) / Fold change /veh SYPL1 (11715823_x_at) / RFU IGFBP7 (11715501_s_at) / Fold change /veh IGFBP7 (11715501_s_at) / RFU REEP3 (11722064_at) / Fold change /veh REEP3 (11722064_at) / RFU IGLL1 (11728026_x_at) / Fold change /veh IGLL1 (11728026_x_at): dose or concentration left out as unconfirmed", "details": "MV-4-11 cells, 48 hours"}
{"compound": "Nc1ncn([C@@H]2O[C@H](CO)[C@@H](O)[C@H]2O)c(=O)n1", "note": "[azacitidine]", "values": [{"measurement": "RFU VCAN (11748164_a_at)", "result": 5.82, "unit": "RFU"}]}
